This passage reports median survival time results from ChEMBL document CHEMBL1124302, “Nucleoside conjugates. 10. Synthesis and antitumor activity of 1-beta-D-arabinofuranosylcytosine 5'-diphosphate-1,2-dipalmitins” (J Med Chem, 1988).

Holding throughout (assay type): organism-based
Data set [1] concerns Mus musculus. The data set is described as follows: Toxicity in mice after 17-35 days at a dose of 400 mg/kg/day; 19/9. The following applies: in vivo.
In data set [2] the test system is Mus musculus. The experiment in a line: Toxicity in mice after 17-29 days at a dose of 80 mg/kg/day; 21/9.5. To be noted: in vivo.
For data set [3], the system named is Mus musculus. The experiment in a line: Toxicity in mice after 29->45 days at a dose of 60 mg/kg/day; 45/9. To be noted: in vivo, 1080 h.
Data set [4] has as its system Mus musculus. The experiment in a line: Toxicity in mice after 35->45 days at a dose of 133 mg/kg/day; 45/9.5. To be noted: in vivo, 1080 h.
Data set [5] has as its system Mus musculus. The data set is described as follows: Toxicity in mice after 8->45 days at a dose of 300 mg/kg/day; 45/9. To be noted: in vivo, 1080 h.
The test system of data set [6] is Mus musculus. The data set is described as follows: Toxicity in mice after 7-14 days at a dose of 100 mg/kg/day; 11/9.5. To be noted: in vivo.
Data set [7] deals with Mus musculus. The data set is described as follows: Toxicity in mice after 9-11 days at a dose of 200 mg/kg/day; 10/9.5. To be noted: in vivo.
Data set [8] concerns Mus musculus. The experiment in a line: Toxicity in mice after 10 days at a dose of 95 and 190 mg/kg/day; 10/9.5. To be noted: in vivo, 240 h.
Data set [9] has as its system Mus musculus. The data set is described as follows: Toxicity in mice after 11-12 days at a dose of 19 and 38 mg/kg/day; 11/9.5. The following applies: in vivo.
Data set [10] deals with Mus musculus. The experiment in a line: Toxicity in mice after 14-45 days at a dose of 100 mg/kg/day; 37.5/9. To be noted: in vivo.
The subject of data set [11] is Mus musculus. The experiment in a line: Toxicity in mice after 15-45 days at a dose of 60 mg/kg/day; 30/9. To be noted: in vivo.
Data set [12] has as its system Mus musculus. The data set is described as follows: Toxicity in mice after 32->45 days at a dose of 400 mg/kg/day; 45/9. The following applies: in vivo, 1080 h.
The subject of data set [13] is Mus musculus. The experiment in a line: Toxicity in mice after 15-18 days at a dose of 60 mg/kg/day; 15.5/8.5. To be noted: in vivo.
Data set [14] has as its system Mus musculus. The data set is described as follows: Toxicity in mice after 12-13 days at a dose of 100 mg/kg/day; 12/8. The following applies: in vivo.
For data set [15], the system named is Mus musculus. The data set is described as follows: Toxicity in mice after 17-21 days at a dose of 60 mg/kg/day; 21/8.5. To be noted: in vivo.
Data set [16] deals with Mus musculus. The data set is described as follows: Toxicity in mice after 7 days at a dose of 200 mg/kg/day; 7/9. To be noted: in vivo, 168 h.
The test system of data set [17] is Mus musculus. The experiment in a line: Toxicity in mice after 7-8 days at a dose of 100 mg/kg/day; 7/9. To be noted: in vivo.
Data set [18] deals with Mus musculus. The experiment in a line: Toxicity in mice after 13-15 days at a dose of 60 mg/kg/day; 14/8.5. The following applies: in vivo.
Data set [19] concerns Mus musculus. The data set is described as follows: Toxicity in mice after 9-12 days at a dose of 200 mg/kg/day; 10.5/9.5. To be noted: in vivo.
The test system of data set [20] is Mus musculus. The experiment in a line: Toxicity in mice after 7-8 days at a dose of 200 mg/kg/day; 8/9. The following applies: in vivo.

For the molecule `CCCCCCCCCCCCCCCC(=O)OC[C@@H](COP(=O)(O)OP(=O)(O)OC[C@H]1O[C@@H](n2ccc(N)nc2=O)[C@@H](O)[C@@H]1O)OC(=O)CCCCCCCCCCCCCCC`, the median survival time in the data set with Mus musculus [1] came to 19 days; with Mus musculus [2], 21 days.
For the molecule `CCCCCCCCCCCCCCCC(=O)OC[C@H](COP(=O)(O)OP(=O)(O)OC[C@H]1O[C@@H](n2ccc(N)nc2=O)[C@@H](O)[C@@H]1O)OC(=O)CCCCCCCCCCCCCCC`, the median survival time with Mus musculus [3], with Mus musculus [4] and with Mus musculus [5] was greater than 45 days each time.
With `CCCCCCCCCCCCCCCC(=O)OC[C@H](COP(=O)(O)O)OC(=O)CCCCCCCCCCCCCCC.Nc1ccn([C@@H]2O[C@H](COP(=O)(O)O)[C@@H](O)[C@@H]2O)c(=O)n1`, the median survival time stood at 11 days in the data set on Mus musculus [6] and 10 days with Mus musculus [7].
For the molecule `CCCCCCCCCCCCCCCC(=O)OC[C@@H](COP(=O)(O)O)OC(=O)CCCCCCCCCCCCCCC.Nc1ccn([C@@H]2O[C@H](COP(=O)(O)O)[C@@H](O)[C@@H]2O)c(=O)n1`, the median survival time worked out at 10 days in the data set on Mus musculus [8] and 11 days in the data set on Mus musculus [9].
With `CCCCCCCCCCCCCCCC(=O)OCC(COP(=O)(O)OP(=O)(O)OC[C@H]1O[C@@H](n2ccc(N)nc2=O)[C@@H](O)[C@@H]1O)OC(=O)CCCCCCCCCCCCCCC` (mixture of isomers), the median survival time with Mus musculus [10] is 37.5 days; in the data set with Mus musculus [11] it was 30 days; in the data set with Mus musculus [12], greater than 45 days.
Take `Nc1ccn([C@@H]2O[C@H](CO)[C@@H](O)[C@@H]2O)c(=O)n1` [CYTARABINE]: the median survival time in the data set with Mus musculus [13] stood at 15.5 days; with Mus musculus [14] it was 12 days; with Mus musculus [15], 21 days; in the data set on Mus musculus [16], 7 days; in the data set on Mus musculus [17], 7 days; in the data set with Mus musculus [18], 14 days. Also, the results for the median survival time in the data set with Mus musculus [19] and with Mus musculus [20] were 10.5 days and 8 days, respectively.
